Experimental data from patent publication US20110071197A1, “BIS-ARYL COMPOUNDS FOR USE AS MEDICAMENTS” (priority 2008, published 2011).

Each molecule was assayed against T1, Recombinant human LTC4 synthase (Homo sapiens, UniProt Q16873) (assay: LTC4 synthase in vitro assay (HTRF detection of LTC4)). Details: total concentration of title compound in the assay 10 μM; HTRF method.
T1 construct: made in house; host or cells: Pichia pastoris
T1 sequence (Q16873 1-150): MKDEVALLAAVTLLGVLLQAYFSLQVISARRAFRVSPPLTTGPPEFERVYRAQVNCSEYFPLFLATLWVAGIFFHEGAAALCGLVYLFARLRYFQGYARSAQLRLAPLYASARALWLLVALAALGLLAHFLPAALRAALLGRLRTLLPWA
Assay type: biochemical
Outline: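 Pichia-expressed recombinant human LTC4 synthase at 0.5 μg/ml total protein in PBS pH 7.4 with 5 mM GSH, preincubated 10 min at RT with inhibitor (10 μM final). LTA4 (2.5 μM final) was then added for 5 min at RT. LTC4 formed was read by HTRF.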

inhibition at 10 µM [%]	SMILES	% inh. [%]
96	COc1ccc(S(=O)(=O)N(C)c2ccc(Oc3ccc(NC(=O)c4cc(Cl)cnc4Cl)c(C(=O)O)c3)cc2)cc1 [11:21, 2-[(2,5-Dichloropyridine-3-carbonyl)amino]-5-{4-[(4-methoxybenzenesulfonyl)-methylamino]phenoxy}benzoic acid]	–
96	CCCCc1ccc(S(=O)(=O)N(C)c2ccc(Oc3ccc(NC(=O)c4ccc(OC(C)C)cc4)c(C(=O)O)c3)cc2)cc1 [11:6, 5-{4-[(4-butylbenzene-sulfonyl)-methylamino]phenoxy}-2-(4-isopropoxybenzoylamino)-benzoic acid]	–
–	O=C(Nc1ccc(Oc2ccc(NC(=O)c3cc([N+](=O)[O-])ccc3Cl)c(C(=O)O)c2)cc1C(=O)O)c1cccc(Cl)c1 [2:4, 5-[3-carboxy-4-(3-nitro-6-chlorobenz-amido)-phenyloxy]-2-(3-chlorobenz-amido)benzoic acid]	99
–	O=C(Nc1ccc(S(=O)(=O)c2ccc(NC(=O)c3ccc(C(F)(F)F)cc3)c(C(=O)O)c2)cc1C(=O)O)c1ccc(C(F)(F)F)cc1 [16:2, 2-(4-(trifluoromethyl)benz-amido)-5-((4-(4-(trifluoro-methyl)benzamido)-3-carboxyphenyl)sulfonyl)-benzoic acid]	97
99	O=C(Nc1ccc(Sc2ccc(NC(=O)c3ccc(C(F)(F)F)cc3)c(C(=O)O)c2)cc1C(=O)O)c1ccc(C(F)(F)F)cc1 [13:3, 2-(4-(trifluoromethyl)-benzamido)-5-((4-(4-(trifluoromethyl)benzamido)-3-carboxyphenyl)sulfanyl)benzoic acid]	–
98	O=C(O)Cc1cc(Oc2ccc(NC(=O)c3ccc(C(F)(F)F)cc3F)c(C(=O)O)c2)ccc1NC(=O)c1cc(Cl)ccc1O [6:2, 5-[3-carboxymethyl-4-(5-chloro-2-hydroxybenzoylamino)-phenoxy]-2-(2-fluoro-4-trifluoromethyl-benzoylamino)benzoic acid]	–
–	CCCCN(c1ccc(Oc2ccc(Nc3ccc(Cl)cc3)c(C(=O)O)c2)cc1)c1ccc(F)c(F)c1 [24:2]	95
98	O=C(O)c1cc(Oc2cccc(NCc3cccc(Cl)c3F)c2)ccc1NS(=O)(=O)c1ccc(Cl)cc1Cl [23:5, 5-[3-(3-Chloro-2-fluorobenzylamino)-phenoxy]-2-(2,4-dichlorobenzene-sulfonylamino)benzoic acid]	–
79	CCCCc1ccc(C(=O)Nc2ccc(Oc3ccc(NC(=O)c4ccc(C(F)(F)F)cc4F)cc3)cc2CC(=O)O)cc1 [17:4, {2-(4-butyl-benzoylamino)-5-[4-(2-fluoro-4-trifluoromethyl-benzoylamino)-phenoxy]-phenyl}-acetic acid]	–
–	CCCCc1ccc(C(=O)Nc2ccc(Oc3ccc(NC(=O)c4ccc(F)c(Cl)c4)c(C(=O)O)c3)cc2C(=O)O)cc1 [2:7, 5-[3-carboxy-4-(3-chloro-4-fluorobenz-amido)-phenyloxy]-2-(4-butylbenz-amido)benzoic acid]	100
96	O=C(NS(=O)(=O)c1ccc(F)cc1)c1cccc(Oc2ccc(Nc3ccc(Cl)cc3)c(C(=O)O)c2)c1 [20:8, 5-[3-(4-Fluorobenzenesulfonyl-aminocarbonyl)-phenoxy]-2-(4-chloro-phenylamino)-benzoic acid]	–
100	O=C(Nc1ccc(Sc2ccc(NC(=O)c3cccc(Cl)c3)c(C(=O)O)c2)cc1C(=O)O)c1cccc(Cl)c1 [13:2, 2-(3-chlorobenzamido)-5-((4-(3-chlorobenzamido)-3-carboxyphenyl)sulfanyl)benzoic acid]	–
–	CN(C(=O)c1ccc(C(C)(C)C)cc1)c1ccc(Oc2ccc(NC(=O)c3ccc(Cl)cc3Cl)c(C(=O)O)c2)cc1 [9:3, 5-(4-((N-methyl)-4-tert-butylbenz-amido)phenoxy)-2-(2,4-dichlorobenz-amido)benzoic acid]	99
100	CC(C)Oc1ccc(C(=O)Nc2ccc(Oc3ccc(NC(=O)c4cc(Cl)ccc4O)c(CC(=O)O)c3)cc2C(=O)O)cc1 [6:3, 5-[3-carboxymethyl-4-(5-chloro-2-hydroxybenzoylamino)phenoxy]-2-(4-isopropoxybenzoyl-amino)benzoic acid]	–
98	CCCCc1ccc(C(=O)Nc2cccc(Oc3ccc(NC(=O)c4c(F)cccc4F)c(C(=O)O)c3)c2)cc1 [10:1, 5-[(3-(4-(1-butyl)benzoylamino)-phenoxy)]-2-(2,6-difluorobenzoyl-amino)benzoic acid]	–
96	O=C(O)Cc1cc(Oc2ccc(NC(=O)c3ccc(C(F)(F)F)cc3F)cc2)ccc1NC(=O)c1cccc(Cl)c1 [17:1, {2-(3-chloro-benzoylamino)-5-[4-(2-fluoro-4-trifluoromethyl-benzoylamino)-phenoxy]-phenyl}-acetic acid]	–
99	O=C(Nc1ccc(Oc2ccc(NC(=O)c3ccc([N+](=O)[O-])cc3)c(C(=O)O)c2)cc1C(=O)O)c1ccccc1 [5:2, 5-[3-carboxy-4-(4-nitrobenzamido)-phenyloxy]-2-benzamidobenzoic acid]	–
98	CC(C)(C)c1ccc(C(=O)Nc2ccc(Oc3ccc(NC(=O)c4cc(Cl)cnc4Cl)c(C(=O)O)c3)cc2)cc1 [8:17, 5-[4-(4-tert-Butylbenzoyl-amino)phenoxy]-2-[(2,5-di-chloropyridine-3-carbonyl)-amino]benzoic acid]	–
86	O=C(Nc1ccc(Oc2ccc([N+](=O)[O-])c(C(=O)O)c2)cc1C(=O)O)c1ccc(C(F)(F)F)cc1 [3:2, 2-nitro-5-[4-(4-trifluoromethyl-benzoylamino)-3-carboxy-phenoxy]benzoic acid]	–
99	CC(C)Oc1ccc(C(=O)Nc2ccc(Oc3ccc(N(C)C(=O)c4ccc(C(F)(F)F)cc4)cc3)cc2C(=O)O)cc1 [9:4, 5-(4-((N-methyl)-4-trifluoromethyl-benzamido)phenoxy)-2-(4-isopropoxy-benzamido)benzoic acid]	–
98	CN(C(=O)c1ccc(C(F)(F)F)cc1)c1ccc(Oc2ccc(NC(=O)c3ccc(Cl)cc3Cl)c(C(=O)O)c2)cc1 [9:5, 5-(4-((N-methyl)-4-trifluoromethyl-benzamido)phenoxy)-2-(2,4-dichloro-benzamido)benzoic acid]	–
–	CCCCc1ccc(C(=O)Nc2ccc(Oc3ccc(Nc4ccc(F)cc4)cc3)cc2C(=O)O)cc1 [12:2, 5-(4-(4-fluorophenylamino)-phenoxy)-2-(4-butylbenz-amido)benzoic acid]	94
98	O=C(Nc1ccc(S(=O)(=O)c2ccc(NC(=O)c3cccc(Cl)c3)c(C(=O)O)c2)cc1C(=O)O)c1cccc(Cl)c1 [16:1, 2-(3-chlorobenzamido)-5-(4-(3-chlorobenzamido)-3-carboxyphenylsulfonyl)-benzoic acid]	–
96	O=C(NS(=O)(=O)c1ccc(F)c(F)c1)c1cccc(Oc2ccc(Nc3ccc(Cl)cc3)c(C(=O)O)c2)c1 [20:2, 2-(4-Chloro-phenylamino)-5-[3-(3,4-difluoro-benzenesulfonylamino-carbonyl)-phenoxy]-benzoic acid]	–
96	O=C(O)c1cc(Oc2cccc(Oc3ccc(F)c(F)c3)c2)ccc1Nc1ccc(F)c(F)c1 [Example 28:3, 5-[3-(3,4-Difluoro-phenoxy)-phenoxy]-2-(3,4-difluoro-phenylamino)-benzoic acid]	–
96	COc1ccc(S(=O)(=O)N(C)c2ccc(Oc3ccc(NC(=O)c4ccccc4C(F)(F)F)c(C(=O)O)c3)cc2)cc1 [11:18, 5-{4-[(4-Methoxy-benzenesulfonyl)-methyl-amino]-phenoxy}-2-(2-trifluoromethyl-benzoylamino)-benzoic acid]	–
94	O=C(Nc1ccc(Oc2cccc(Oc3ccc(F)c(F)c3)c2)cc1C(=O)O)c1ccc(OC2CCCC2)cc1 [Example 28:2, 2-(4-Cyclopentyloxybenzoylamino)-5-[3-(3,4-difluorophenoxy)phenoxy]benzoic acid]	–
93	O=C(Cc1cccc(Oc2ccc(Nc3ccc(Cl)cc3)c(C(=O)O)c2)c1)NS(=O)(=O)c1ccc(F)c(F)c1 [26:2, 2-(4-Chlorophenylamino)-5-{3-[2-(3,4-difluorobenzenesulfonylamino)-2-oxoethyl]phenoxy}benzoic acid]	–
100	CCCCc1ccc(S(=O)(=O)N(C)c2ccc(Oc3ccc(NC(=O)c4ccc(Cl)cc4Cl)c(C(=O)O)c3)cc2)cc1 [11:7, 5-{4-[(4-butylbenzenesulfonyl)-methylamino]phenoxy}-2-(2,4-dichlorobenzoylamino)benzoic acid]	–

SMILES	inhibition at 10 µM [%]	% inh. [%]
CCCCOc1ccc(S(=O)(=O)Nc2ccc(Oc3ccc(N(C)C(=O)c4ccccc4)c(C(=O)O)c3)cc2)cc1 [11:9, 2-(benzoylmethylamino)-5-[4-(4-butoxybenzenesulfonylamino)-phenoxy]benzoic acid]	89	–
CCCCOc1ccc(S(=O)(=O)Nc2ccc(Oc3cccc(NCc4cccc(Cl)c4F)c3)cc2C(=O)O)cc1 [23:4, 2-(4-Butoxybenzenesulfonylamino)-5-[3-(3-chloro-2-fluorobenzylamino)-phenoxy]benzoic acid]	99	–
CCCCOc1ccc(S(=O)(=O)Nc2ccc(Oc3cccc(C(=O)NS(=O)(=O)c4ccc(F)cc4)c3)cc2C(=O)OC(C)(C)C)cc1 [20:4, 2-(4-Butoxy-benzenesulfonylamino)-5-[3-(4-fluoro-benzenesulfonylamino-carbonyl)-phenoxy]-benzoic acid t-butyl ester]	99	–
CCCCOc1ccc(S(=O)(=O)Nc2ccc(Oc3ccc(NC(=O)c4ccccc4)cc3)cc2C(=O)O)cc1 [21:4, 5-(4-benzoylamino-phenoxy)-2-(4-butoxy-benzenesulfonylamino)-benzoic acid]	100	–
CCCCOc1ccc(S(=O)(=O)Nc2ccc(Oc3ccc(S(=O)(=O)Nc4ccc(Cl)cc4)cc3)cc2C(=O)O)cc1 [25:2, 2-(4-Butoxy-benzenesulfonyl-amino)-5-[4-(4-chlorophenylsulfamoyl)phenoxy]benzoic acid]	100	–
